In ChEMBL document CHEMBL1201862, “PubChem BioAssay data set” (2004):
Activity calls are given as the source filed them.

Assays:
[1] = Luminescence Cell-Based Dose Confirmation HTS to Identify Inhibitors of Polyadenylation.; type: functional
Streptokinase A = biological target: T1, Streptokinase A (Streptococcus pyogenes serotype M1, UniProt P10520); assay: S. pyogenes streptokinase expression inhibitors, potency, dose response, plasminogen activation absorbance, OD405 (AID 1914); type: functional, Streptococcus pyogenes M1 GAS;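 note: secreted streptokinase activity via plasminogen activation per viability signal from cell pellet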
T1 sequence (P10520 whole entry): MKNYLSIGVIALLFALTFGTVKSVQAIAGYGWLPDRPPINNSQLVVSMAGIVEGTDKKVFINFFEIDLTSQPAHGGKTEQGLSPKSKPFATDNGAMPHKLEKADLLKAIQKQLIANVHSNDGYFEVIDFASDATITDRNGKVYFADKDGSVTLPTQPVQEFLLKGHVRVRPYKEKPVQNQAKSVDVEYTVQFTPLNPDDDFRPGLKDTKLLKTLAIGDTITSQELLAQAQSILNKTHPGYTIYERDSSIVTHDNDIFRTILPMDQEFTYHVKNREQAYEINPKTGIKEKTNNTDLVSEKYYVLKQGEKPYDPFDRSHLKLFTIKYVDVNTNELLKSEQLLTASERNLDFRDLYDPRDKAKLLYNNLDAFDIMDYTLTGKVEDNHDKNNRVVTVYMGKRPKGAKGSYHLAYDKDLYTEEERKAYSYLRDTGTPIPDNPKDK

[2] = biological target: Neuropeptide Y receptor type 1 (Homo sapiens, UniProt P25929); assay: Fluorescence-based dose response cell-based high-throughput screening assay for agonists of NPY-Y1. [Related pubchem assays: 1697 (Screening assay (NPY-Y1 agonists).), 1359 (Screening assay (NPY-Y2 potentiators or agonists).), 1304 (Screening assay (NPY-Y1 potentiators or agonists).), 1704 (Screening assay (CNGC inhibitors).), 1791 (Summary AID.)]; type: functional
[3] = biological target: Neuropeptide Y receptor type 2 (Homo sapiens, UniProt P49146); assay: Fluorescence-based counterscreen for agonists of NPY-Y1: cell-based high-throughput dose response assay for agonists of NPY-Y2.; type: functional
[4] = biological target: Glyceraldehyde-3-phosphate dehydrogenase (Homo sapiens, UniProt P04406)
Bcl-2-related protein A1 [5] = biological target: T2, Bcl-2-related protein A1 (Mus musculus, UniProt Q07440); assay: Bfl-1 binding inhibitors, SAR follow-up, biochemical, fluorescence polarization (AID 1070)
T2 sequence (Q07440 whole entry): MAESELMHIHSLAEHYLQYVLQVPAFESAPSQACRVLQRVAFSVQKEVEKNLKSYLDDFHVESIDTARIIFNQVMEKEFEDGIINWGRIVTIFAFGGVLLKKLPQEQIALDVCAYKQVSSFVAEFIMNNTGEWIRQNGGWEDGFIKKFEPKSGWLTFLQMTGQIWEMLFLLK

Bcl-2-related protein A1 [6] = biological target: T2, Bcl-2-related protein A1; assay: Bfl-1 inhibitors blocking BH3 peptide binding, confirmation, biochemical, TR-FRET, mouse Bfl-1 (AID 621);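 note: TR-FRET binding of GST-Bfl-1 to FITC-labelled Bid peptide via terbium antibody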

Sequence of Glyceraldehyde-3-phosphate dehydrogenase (P04406 whole entry): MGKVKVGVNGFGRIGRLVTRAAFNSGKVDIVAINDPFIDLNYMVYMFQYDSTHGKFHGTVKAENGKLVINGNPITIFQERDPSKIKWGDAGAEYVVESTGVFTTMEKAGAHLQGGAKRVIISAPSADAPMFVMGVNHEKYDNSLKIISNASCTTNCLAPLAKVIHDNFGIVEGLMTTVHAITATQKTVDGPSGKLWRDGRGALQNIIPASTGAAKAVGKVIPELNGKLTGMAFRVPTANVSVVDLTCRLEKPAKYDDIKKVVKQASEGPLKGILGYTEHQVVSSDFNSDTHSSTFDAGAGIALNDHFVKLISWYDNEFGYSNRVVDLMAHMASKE
Sequence of Neuropeptide Y receptor type 2 (P49146 whole entry): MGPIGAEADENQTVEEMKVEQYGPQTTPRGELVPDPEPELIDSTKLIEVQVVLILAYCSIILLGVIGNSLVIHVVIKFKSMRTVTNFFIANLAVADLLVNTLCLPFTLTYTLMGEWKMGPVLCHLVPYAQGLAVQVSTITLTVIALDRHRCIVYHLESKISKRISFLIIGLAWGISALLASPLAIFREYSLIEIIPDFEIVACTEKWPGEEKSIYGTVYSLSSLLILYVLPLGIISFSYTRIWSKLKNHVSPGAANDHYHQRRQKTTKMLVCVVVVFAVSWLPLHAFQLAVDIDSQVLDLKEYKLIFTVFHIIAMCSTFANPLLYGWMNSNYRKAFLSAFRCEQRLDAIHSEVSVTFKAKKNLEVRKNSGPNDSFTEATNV
Sequence of Neuropeptide Y receptor type 1 (P25929 whole entry): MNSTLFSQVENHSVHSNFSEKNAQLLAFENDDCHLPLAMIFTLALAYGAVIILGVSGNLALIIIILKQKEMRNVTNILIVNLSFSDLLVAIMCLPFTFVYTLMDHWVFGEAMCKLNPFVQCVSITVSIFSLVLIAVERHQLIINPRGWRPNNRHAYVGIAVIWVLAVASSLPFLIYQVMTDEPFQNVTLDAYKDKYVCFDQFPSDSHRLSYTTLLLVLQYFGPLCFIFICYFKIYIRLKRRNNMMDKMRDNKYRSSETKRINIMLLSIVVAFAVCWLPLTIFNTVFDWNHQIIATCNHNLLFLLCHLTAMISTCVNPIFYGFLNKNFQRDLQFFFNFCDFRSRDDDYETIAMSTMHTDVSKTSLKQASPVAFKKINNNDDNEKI

## C/C(=N\NC(=O)COc1ccc(C)cc1[N+](=O)[O-])c1cccs1
[1]
  EC50: > 120 µM (not active)

## CCOc1ccc(NC(=S)NNC(=S)Nc2cccc(C(F)(F)F)c2)cc1
Streptokinase A
  EC50: > 150 µM (not active)
[2]
  EC50: 27.3 µM (not active)
[3]
  EC50: > 35.4 µM (not active)

## CCN1CCN(C2=C(Cl)C(=O)N(c3ccc([N+](=O)[O-])cc3)C2=O)CC1
[4]
  IC50: > 100 µM (not active)
Bcl-2-related protein A1 [5]
  IC50: 0.565 µM (active)
Bcl-2-related protein A1 [6]
  IC50: 0.83 µM (active)
